Patent US8071555B2, “Protective skin care peptides” (Helix BioMedix Inc., priority 2007, dated 2011)
Values joined by “and” are separate entries in the source; they are usually repeats but may differ in a detail not shown here. Equal entries are not always repeated. Ends that are not written are not given here. Peptide text beside a SMILES is read from it. * marks the point of attachment. Decanoyl = CCCCCCCCCC(=O)*

How the values were obtained:
trypsin = assay: Peptide degradation by trypsin with or without protease inhibitor (LC/MS); format: in vitro ADME; conditions: for Survival: Trypsin 25 μg/mL, peptide 1 mg/mL
Protocol: (§1) Peptides of synthetic origin and LL-37 were used in the protease processing experiments at a concentration of 1-2 mg/mL in 0.5M MOPS pH 8.5/0.5M NaCl final buffer concentration. Proteases were used at a concentration of 0.020-0.050 mg/mL.
(§2) Experiments were run in pairs, one with protease inhibitor and one without a protease inhibitor. Liquid chromatography/mass spectrometry (LC/MS) spectra were collected at approximately 1-minute, 1-hour, 4-hour and 24-hour time points from the time of adding protease to the peptide (time zero). LC/MS spectra were collected using a standard reverse phase gradient starting at 5% acetonitrile and ramping up to 65% acetonitrile in 25 minutes.
(§3) The proteases employed in the study were initially dissolved in a 1M NaCl solution, while the peptides were dissolved in 1M MOPS buffer at pH 8.5. The solutions were equilibrated to 37° C. and then mixed at a ratio of 1:1 to start each experiment. Lower buffer concentrations were also used (0.1M MOPS pH 8.5 and 0.2M NaCl). Protease inhibitors were tested at several different concentrations (low and high from 0.02 mg/mL to 40 mg/mL) against a given protease.
(§4) The mass spectrometer used in these studies has a limit of detection below which the specific molecular weight of a molecule cannot be identified from the TIC trace. In these below-detection situations, it was assumed that the tested peptide was completely degraded.
(§5) A series of experiments were performed employing the above-described methodology to determine the utility of the invention as it regards a wider range of proteases, peptides and protease inhibitors. If, at any specific time-point, there was no detectable parent peptide (i.e., the absence of non-degraded peptide), then that time-point was documented as the time required for peptide degradation.

plasmin = biological target: T1, plasmin (Homo sapiens, UniProt P00747); assay: Peptide degradation by plasmin with or without protease inhibitor (LC/MS); format: in vitro ADME; conditions: for Survival: peptide 1 mg/mL
T1 construct: purchased Sigma-Aldrich
T1 sequence (P00747 581-810 limits assumed, species assumed): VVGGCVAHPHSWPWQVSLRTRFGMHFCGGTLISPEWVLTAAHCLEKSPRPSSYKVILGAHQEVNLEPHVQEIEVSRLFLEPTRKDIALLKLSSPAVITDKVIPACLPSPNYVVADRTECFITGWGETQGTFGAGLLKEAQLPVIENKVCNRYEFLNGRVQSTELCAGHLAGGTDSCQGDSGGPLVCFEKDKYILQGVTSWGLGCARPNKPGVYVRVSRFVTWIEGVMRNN
T1 sequence (P00747 97-580 limits assumed, species assumed): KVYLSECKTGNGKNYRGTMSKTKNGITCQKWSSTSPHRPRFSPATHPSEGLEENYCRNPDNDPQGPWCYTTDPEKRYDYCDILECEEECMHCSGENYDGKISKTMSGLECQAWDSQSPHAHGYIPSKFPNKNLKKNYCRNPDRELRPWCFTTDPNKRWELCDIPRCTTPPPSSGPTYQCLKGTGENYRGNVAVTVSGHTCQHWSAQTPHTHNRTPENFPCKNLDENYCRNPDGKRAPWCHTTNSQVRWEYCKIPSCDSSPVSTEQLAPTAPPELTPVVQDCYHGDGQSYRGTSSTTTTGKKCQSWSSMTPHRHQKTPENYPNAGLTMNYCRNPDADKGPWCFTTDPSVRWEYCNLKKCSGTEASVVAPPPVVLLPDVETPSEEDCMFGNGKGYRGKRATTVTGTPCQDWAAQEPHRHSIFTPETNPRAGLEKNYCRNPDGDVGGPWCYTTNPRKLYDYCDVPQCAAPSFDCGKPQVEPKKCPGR
Protocol: as §1, §2, §3, §4, §5

chymotrypsin = biological target: T2, chymotrypsin (Bos taurus, UniProt P00766); assay: Peptide degradation by chymotrypsin with or without protease inhibitor (LC/MS); format: in vitro ADME; conditions: peptide 1 mg/mL
T2 construct: purchased Sigma-Aldrich
Protocol: as §1, §2, §3, §4, §5

elastase = assay: Peptide degradation by elastase with or without protease inhibitor (LC/MS); format: in vitro ADME; conditions: Elastase 25 μg/mL, peptide 1 mg/mL
Protocol: as §1, §2, §3, §4, §5

kallikrein = assay: Peptide degradation by kallikrein with or without protease inhibitor (LC/MS); format: in vitro ADME; conditions: Kallikrein 25 μg/mL, peptide 1 mg/mL
Protocol: as §1, §2, §3
The mass spectrometer used in these studies has a limit of detection below which the specific molecular weight of a molecule cannot be identified from the TIC trace. In these below-detection situations, it was assumed that the tested peptide was completely degraded. […]

IL-6 expression [1] = assay: UVB-induced IL-6 expression in human skin epithelial cells (ELISA); format: cell-based; conditions: for reduction of IL-6 levels: skin epithelial cells treated with UVB; for repression of UVB-induced IL-6 expression: skin epithelial cells, peptide 40 μg/mL, 24 hours post UVB
Protocol: (§6) Human skin epithelial cells (ATCC CRL-2592), keratinocytes (ATCC CRL-2404) and skin fibroblasts (ATCC CRL-7481) were employed in the study. Cells were seeded into 6-well plates and allowed to grow to >95% confluence in Dulbecco's modified Eagle's medium (DMEM; 4 mM L-glutamine, 4.5 g/L glucose) adjusted to contain 1.5 g/L sodium bicarbonate and supplemented with 10% fetal bovine serum (FBS). For keratinocytes, cells were grown in keratinocyte growth media (without serum) supplemented with 5 ng/mL human recombinant epithelial growth factor (EGF; Invitrogen, Grand Island, N.Y.). After the cell monolayer reached >95% confluence, the cells were serum-starved or EGF-starved for 24 hours in complete medium without serum. UVA or UVB was generated using a UVLMS lamp (4-W model, 3UV assembly; Upland, Calif.) with the irradiation wavelength set at 365 or 302 nm, respectively. The UV lamp was placed 15 cm above the tissue culture plate. Before UV treatment, the tissue culture media was replaced with PBS, after which the cells were placed under the UVB lamp (450 μW/cm^2, measured using a radiometer) for 35 seconds (epithelial cells and fibroblasts) or 25 seconds (keratinocytes). UVA treatment was conducted (500 μW/cm^2) for 30 seconds with fibroblasts. After UV treatment, PBS was immediately replaced with complete medium (without serum or EGF) containing either no peptide or peptide at a specified concentration, and the plates were incubated at 37° C., 5% CO2 for 15-24 hours. The cell media was then collected and spun down at 15000 rpm for 2 minutes to remove cell debris. IL-6 and MMP-1 levels in the media were measured, respectively, using human IL-6 (DIACLONE, Stamford, Conn.) and MMP-1 (Calbiochem, San Diego, Calif.) ELISA kits according to manufacturers' instructions. These measurements served as indicators of cell inflammatory activity in response to UV exposure.
All the tetrapeptides listed in Table I were subjected to a screening test at 40 μg/mL for potential down-regulation of this response (data not shown).
P1422 (SEQ ID NO:1) reduced IL-6 levels by 19% and 25% at 10 and 20 μg/mL, respectively; and P1423 (SEQ ID NO:2) reduced IL-6 levels by 10% and 20% at 10 and 20 μg/mL, respectively.

IL-6 expression [2] = assay: UVB-induced IL-6 expression in human keratinocytes (ELISA); format: cell-based; conditions: UVB-treated human keratinocytes; peptide 10 μg/mL
Protocol: as §6, with “UVA treatment was conducted (500 μW/cm^2) for 30 seconds with fibroblasts. After UV treatment, PBS was immediately replaced with complete medium (without serum or EGF) containing either no peptide or peptide at a specified concentration, and the plates were incubated at 37° C., 5% CO2 for 15-24 hours. The cell media was then collected and spun down at 15000 rpm for 2 minutes to remove cell debris.” left out, “These measurements served as indicators of cell inflammatory activity in response to UV exposure.” left out

IL-6 expression [3] = assay: UVB-induced IL-6 expression in human skin fibroblasts (ELISA); format: cell-based; conditions: human fibroblasts after UVB
Protocol: as §6
Such peptide-mediated IL-6 down-regulation was also evident in human fibroblasts after exposure to UVB.

MMP-1 expression [4] = assay: UVA-induced MMP-1 expression in human skin fibroblasts (ELISA); format: cell-based; conditions: UVA 500 μW/cm^2, peptide 10 μg/mL
Protocol: as §6, with “UVA treatment was conducted (500 μW/cm^2) for 30 seconds with fibroblasts. After UV treatment, PBS was immediately replaced with complete medium (without serum or EGF) containing either no peptide or peptide at a specified concentration, and the plates were incubated at 37° C., 5% CO2 for 15-24 hours. The cell media was then collected and spun down at 15000 rpm for 2 minutes to remove cell debris.” left out, “These measurements served as indicators of cell inflammatory activity in response to UV exposure.” left out

MMP-1 expression [5] = assay: MMP-1 induction in fibroblasts incubated in media conditioned by UVB-treated keratinocytes (ELISA); format: cell-based, human; conditions: peptide 10 μg/mL
Protocol: as §6, with “UVA treatment was conducted (500 μW/cm^2) for 30 seconds with fibroblasts. After UV treatment, PBS was immediately replaced with complete medium (without serum or EGF) containing either no peptide or peptide at a specified concentration, and the plates were incubated at 37° C., 5% CO2 for 15-24 hours. The cell media was then collected and spun down at 15000 rpm for 2 minutes to remove cell debris.” left out, “These measurements served as indicators of cell inflammatory activity in response to UV exposure.” left out

CCCCCCCCCC(=O)N[C@@H](CCCCN)C(=O)N[C@@H](Cc1ccccc1)C(=O)N[C@@H](CCCCN)C(=O)N[C@@H](Cc1c[nH]c2ccccc12)C(=O)N1CCC[C@H]1C(=O)N[C@@H](Cc1c[nH]c2ccccc12)C(N)=O [HB1345, decanoyl-KFKWPW-NH2] (Decanoyl-KFKWPW-NH2)
Survival (trypsin; aprotinin 0.02 mg/mL): >24 h
Survival (trypsin; no protease inhibitor): <1 h

CC[C@H](C)[C@H](NC(=O)[C@H](CCCCN)NC(=O)[C@H](CCC(=O)O)NC(=O)[C@H](CCCCN)NC(=O)[C@H](CO)NC(=O)[C@H](CCCCN)NC(=O)[C@H](CCCNC(=N)N)NC(=O)[C@H](Cc1ccccc1)NC(=O)[C@H](Cc1ccccc1)NC(=O)[C@H](CC(=O)O)NC(=O)CNC(=O)[C@H](CC(C)C)NC(=O)[C@@H](N)CC(C)C)C(=O)NCC(=O)N[C@@H](CCCCN)C(=O)N[C@@H](CCC(=O)O)C(=O)N[C@@H](Cc1ccccc1)C(=O)N[C@@H](CCCCN)C(=O)N[C@@H](CCCNC(=N)N)C(=O)N[C@H](C(=O)N[C@H](C(=O)N[C@@H](CCC(N)=O)C(=O)N[C@@H](CCCNC(=N)N)C(=O)N[C@H](C(=O)N[C@@H](CCCCN)C(=O)N[C@@H](CC(=O)O)C(=O)N[C@@H](Cc1ccccc1)C(=O)N[C@@H](CC(C)C)C(=O)N[C@@H](CCCNC(=N)N)C(=O)N[C@@H](CC(N)=O)C(=O)N[C@@H](CC(C)C)C(=O)N[C@H](C(=O)N1CCC[C@H]1C(=O)N[C@@H](CCCNC(=N)N)C(=O)N[C@H](C(=O)N[C@@H](CCC(=O)O)C(=O)N[C@@H](CO)C(=O)O)[C@@H](C)O)C(C)C)[C@@H](C)CC)C(C)C)[C@@H](C)CC [LL-37]
parent peptide detection (plasmin): undetectable
Survival (plasmin; Plasmin 22 μg/mL, no protease inhibitor): <1 h
Survival (plasmin; Plasmin 22 μg/mL, no protease inhibitor, Expt. 38): <0.75 h
Survival (plasmin; Plasmin 22 μg/mL, tranexamic acid 9 mg/mL): <4 h
Survival (chymotrypsin; Chymotrypsin 22 μg/mL, no protease inhibitor): <1 h
Survival (chymotrypsin; Chymotrypsin 22 μg/mL, tranexamic acid 9 mg/mL): <1 h

FAKALKALLKALKAL-NH2 [HB64, FAKALKALLKALKAL-NH2]
parent peak in TIC traces (trypsin): reduced over time
Survival (elastase; aprotinin 0.02 mg/mL): <1 h
Survival (elastase; no protease inhibitor): <1 h
Survival (elastase; tranexamic acid 0.80 mg/mL): <1 h
Survival (plasmin; Plasmin 20 μg/mL, no protease inhibitor): <4 h
Survival (plasmin; Plasmin 22 μg/mL, tranexamic acid 40 mg/mL): <24 h
Survival (plasmin; Plasmin 25 μg/mL, no protease inhibitor): <4 h and <6 h
Survival (plasmin; Plasmin 46 μg/mL, no protease inhibitor): <4 h
Survival (plasmin; Plasmin 50 μg/mL, tranexamic acid 10 mg/mL): <6 h
amount of parental peptide by XIC trace compared to plasmin alone (plasmin; plasmin plus tranexamic acid vs plasmin alone): five-times greater
protection of peptide (TIC and XIC traces) (plasmin; plasmin plus tranexamic acid, 4-hour exposure): protected from plasmin-mediated proteolysis
degradation of peptide (TIC and XIC traces) (plasmin; plasmin, no inhibitor, 4-hour exposure): most of the HB64 peptide was degraded
Survival (kallikrein; no protease inhibitor): <24 h
Survival (kallikrein; tranexamic acid 0.80 mg/mL): <24 h
Survival (chymotrypsin; Chymotrypsin 25 μg/mL, aprotinin 0.02 mg/mL): <24 h
Survival (chymotrypsin; Chymotrypsin 25 μg/mL, no protease inhibitor): <1 h

FALLKL-NH2 [HB168]
Survival (trypsin; aprotinin 0.02 mg/mL): >24 h
Survival (trypsin; no protease inhibitor): <1 h

PQEI-NH2 [P1423, tetrapeptide amidated at the carboxy terminus]
reduction of IL-6 levels (IL-6 expression [1]; peptide 10 μg/mL): 10%
reduction of IL-6 levels (IL-6 expression [1]; peptide 20 μg/mL): 20%
repression of UVB-induced IL-6 expression (IL-6 expression [1]): reproducible repression
down-regulation of IL-6 expression (IL-6 expression [2]): down-regulate IL-6 expression
reduction of IL-6 levels compared to control (IL-6 expression [3]; peptide 2 μg/mL): 24%
reduction of IL-6 levels compared to control (IL-6 expression [3]; peptide 5 μg/mL): 30%
reduction of IL-6 levels compared to control (IL-6 expression [3]; peptide 10 μg/mL): 48%
down-regulation of UVA-induced MMP-1 expression (MMP-1 expression [4]): able to down-regulate
MMP-1 induction (MMP-1 expression [5]): far less MMP-1 induction

PQEK-NH2 [P1422, tetrapeptide amidated at the carboxy terminus]
reduction of IL-6 levels (IL-6 expression [1]; peptide 10 μg/mL): 19%
reduction of IL-6 levels (IL-6 expression [1]; peptide 20 μg/mL): 25%
repression of UVB-induced IL-6 expression (IL-6 expression [1]): reproducible repression
down-regulation of IL-6 expression (IL-6 expression [2]): down-regulate IL-6 expression
reduction of IL-6 levels compared to control (IL-6 expression [3]; peptide 10 μg/mL): 30%
reduction of IL-6 (IL-6 expression [3]; peptide concentrations lower than 10 μg/mL): no significant reduction
down-regulation of UVA-induced MMP-1 expression (MMP-1 expression [4]): able to down-regulate
MMP-1 induction (MMP-1 expression [5]): far less MMP-1 induction
